The values below come from ChEMBL document CHEMBL1201862, “PubChem BioAssay data set” (2004).

One may read the AC50 as the concentration at which the activity in the assay is half-maximal. The term IC50 denotes the concentration that inhibits the measured activity by half. Broadly, the EC50 is the concentration needed to bring the measured effect to its halfway point.

Assay [1] in a line: toxicity to human hepatoma HepG2 cells – cell-based, cherry-picked samples, cytotoxicity control, dose response (AID 1159577). It counts as functional.
Assay [2] is described as follows: P. falciparum Dd2 growth inhibitors, dose response, SYBR Green, cherry-picked samples (AID 1159567). Format: functional, cell-based.
Assay [3] is described as follows: HEK-293T viability loss after treatment – luminescence, T-cell screen hits, cytotoxicity control for TCR NF-kB inhibitor project, dose response (AID 489026).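 Further: cells exposed to compound about 14 hours before the viability readout.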 It counts as functional, cell-based.
The nature of assay [4]: DRD fibroblast viability loss – cell-based, non-viral oncogenic, luminescence, dose response (AID 1934). The following applies: Homo sapiens. Format: functional.
For assay [5], the system named is BJ. The assay is described as follows: BJ-TERT-LT-ST fibroblast viability loss – cell-based, RAS-independent, luminescence, dose response (AID 1935).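 Further: BJ fibroblasts immortalized with TERT plus LT and ST oncogenes.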 Format: functional. The following applies: Homo sapiens.
Assay [6] relates to BJ. In words: cells. Particulars: Homo sapiens. Format: functional, cell-based.
In assay [7] the test system is BJ. The assay is described as follows: BJ-TERT fibroblast viability loss – cell-based, RAS-independent, luminescence, dose response (AID 1933). The following applies: Homo sapiens. It counts as functional.
In another assay the target is Cytochrome P450 3A4 (Homo sapiens, UniProt P08684). The following applies: Potency.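 Further: confirmatory qHTS run detecting inhibitors and substrates of CYP3A4.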
Assay [8] has as its target Heat shock protein HSP 90-alpha (Homo sapiens, UniProt P07900). Format: functional, organism-based.
The target of assay [9] is T1, High affinity choline transporter 1 (Homo sapiens, UniProt Q9GZV3).
T1 sequence (Q9GZV3 whole entry): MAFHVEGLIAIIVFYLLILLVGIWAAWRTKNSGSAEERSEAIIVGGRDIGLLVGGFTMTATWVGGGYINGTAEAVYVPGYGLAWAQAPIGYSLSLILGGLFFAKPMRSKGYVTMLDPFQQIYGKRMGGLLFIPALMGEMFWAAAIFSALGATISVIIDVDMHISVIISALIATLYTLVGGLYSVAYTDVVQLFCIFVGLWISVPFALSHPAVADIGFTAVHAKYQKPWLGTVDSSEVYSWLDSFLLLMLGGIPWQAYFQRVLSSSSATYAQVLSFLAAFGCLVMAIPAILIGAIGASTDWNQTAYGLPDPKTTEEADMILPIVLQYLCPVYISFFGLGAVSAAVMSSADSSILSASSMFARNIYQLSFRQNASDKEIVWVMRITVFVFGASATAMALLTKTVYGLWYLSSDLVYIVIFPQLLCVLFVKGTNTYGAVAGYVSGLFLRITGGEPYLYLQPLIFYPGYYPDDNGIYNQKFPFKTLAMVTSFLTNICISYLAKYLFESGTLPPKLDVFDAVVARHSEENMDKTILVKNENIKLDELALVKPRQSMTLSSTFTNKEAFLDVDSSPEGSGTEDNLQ
The assay is described as follows: human choline transporter blockers, potency – cell-based, 5-point CRC, membrane potential dye, dose response (AID 504840). Format: functional.

A further assay deals with Nonstructural protein 1 (Influenza A virus, UniProt Q194T2). It counts as functional, Influenza A virus (A/California/07/2009(H1N1)).
A further assay addresses Large T antigen (Simian virus 40, UniProt P03070). It counts as functional, Betapolyomavirus macacae.
In assay [10] the target is T2, RNA-binding protein pos-1 (Caenorhabditis elegans, UniProt G5EF15).
T2 sequence (G5EF15 whole entry): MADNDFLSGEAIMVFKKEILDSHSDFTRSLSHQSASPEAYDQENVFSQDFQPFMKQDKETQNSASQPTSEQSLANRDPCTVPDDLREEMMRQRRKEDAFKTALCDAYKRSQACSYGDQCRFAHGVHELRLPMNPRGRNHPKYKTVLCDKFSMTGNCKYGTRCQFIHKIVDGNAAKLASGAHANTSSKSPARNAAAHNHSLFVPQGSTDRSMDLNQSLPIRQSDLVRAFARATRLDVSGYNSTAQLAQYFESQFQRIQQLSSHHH
The assay is described as follows: disruptors of C. elegans POS-1 RNA interaction – biochemical, fluorescence polarization, dose response (AID 1964).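 Further: purified POS-1 fused to maltose binding protein made in E. coli; potency of compounds blocking POS-1 binding to fluorescent RNA.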

The target of assay [11] is T3, Zinc finger protein mex-5 (Caenorhabditis elegans, UniProt Q9XUB2).
T3 sequence (Q9XUB2 whole entry): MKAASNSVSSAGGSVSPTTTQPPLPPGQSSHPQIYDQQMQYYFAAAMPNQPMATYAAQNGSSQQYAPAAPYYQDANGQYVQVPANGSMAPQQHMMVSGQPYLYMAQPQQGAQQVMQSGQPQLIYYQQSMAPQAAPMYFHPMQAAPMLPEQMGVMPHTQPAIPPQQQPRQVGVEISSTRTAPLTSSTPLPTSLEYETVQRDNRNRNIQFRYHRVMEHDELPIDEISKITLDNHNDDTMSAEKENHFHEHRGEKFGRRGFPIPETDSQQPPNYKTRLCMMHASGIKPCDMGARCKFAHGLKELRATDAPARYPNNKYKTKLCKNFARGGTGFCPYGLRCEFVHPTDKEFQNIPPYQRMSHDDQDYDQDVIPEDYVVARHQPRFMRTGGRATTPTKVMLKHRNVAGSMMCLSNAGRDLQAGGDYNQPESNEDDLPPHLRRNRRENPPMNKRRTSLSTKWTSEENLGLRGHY
In words: potency of MEX-5 RNA-binding blockers – biochemical, C. elegans, fluorescence polarization, dose response (AID 1960).

Assay [12] in a line: blockade of melanocortin 4 receptor signaling – cell-based, plate reader, cherry pick, counter-screen for LGR2 antagonist project, dose response (AID 743444).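 Further: transfected HEK 293 cells stimulated with alpha-MSH peptide; potency of inhibitors of the alpha-MSH evoked signal.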 Format: functional. In general terms: A counterscreen serves to expose hits that act by an unwanted route or on another target.
Assay [13] is described as follows: blockers of bursicon-stimulated LGR2 cAMP reporter – cell-based, HEK293, CRE-luciferase reporter, cherry pick, set 2, dose response (AID 743343).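 Further: transfected cells were stimulated with diluted bursicon conditioned medium after compound addition.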 It counts as functional. On the technique in general: In a reporter assay the amount or activity of a reporter protein is the signal.
A short description of assay [14]: loss of viability in HepG2 cells – cell-based, CellTiter-Glo, cherry-picked, cytotoxicity control for Shn3 inhibitor project, dose response (AID 624134). Format: functional. Background: ATP-based viability assays read luminescence as a measure of living cells.
The nature of assay [15]: non-specific 3'UTR reporter inhibition in Clone20-Shn3RL – cell-based, Renilla luciferase, cherry-picked, counter-screen for Shn3 inhibitor project, dose response (AID 624133). Format: functional.
Assay [16] in a line: reduction of Shn3 3'UTR-driven luciferase in osteoblasts – cell-based, Clone20 osteoblasts, firefly luciferase, cherry-picked, dose response (AID 624132).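 Further: firefly luciferase luminescence from reporter carrying the Shn3 3'UTR in osteoblasts.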 Format: functional.
Assay [17] can be described thus: NIH3T3 cell viability loss – ATP luminescence, mouse fibroblasts, counter-screen, dose response (AID 2010).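 Further: cells exposed to compound for about 90 hours before reading.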 It counts as functional, cell-based.
A short description of assay [18]: Trypanosoma cruzi growth suppression in host cells – NIH3T3 host cells, beta-gal luminescence, confirmation (AID 2044).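 Further: intracellular parasites grown in NIH/3T3 mouse fibroblasts as host cells; luminescent beta-galactosidase reporter signal from transgenic T. cruzi replicating inside host cells; inhibitors lower the luminescence signal.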 Format: functional, cell-based.
A further assay concerns the target Cytochrome P450 2C9 (Homo sapiens, UniProt P11712).
Another assay deals with Cytochrome P450 2C19 (Homo sapiens, UniProt P33261). The assay is described as follows: Cytochrome panel assay with activity outcomes. Panel member name: p450-cyp2c19 Compounds with AC50 equal or less than 10 uM are considered active. It counts as functional. The following applies: read-out: AC50.
A short description of assay [19]: intracellular Trypanosoma cruzi inhibitors in host cells – cell-based, plate reader, cherry-pick samples, set 3, dose response (AID 651818).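 Further: compounds incubated with infected cells for about four days.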 It counts as functional.

Activity calls are given as the source filed them.

Cytochrome P450 3A4, sequence (P08684 whole entry): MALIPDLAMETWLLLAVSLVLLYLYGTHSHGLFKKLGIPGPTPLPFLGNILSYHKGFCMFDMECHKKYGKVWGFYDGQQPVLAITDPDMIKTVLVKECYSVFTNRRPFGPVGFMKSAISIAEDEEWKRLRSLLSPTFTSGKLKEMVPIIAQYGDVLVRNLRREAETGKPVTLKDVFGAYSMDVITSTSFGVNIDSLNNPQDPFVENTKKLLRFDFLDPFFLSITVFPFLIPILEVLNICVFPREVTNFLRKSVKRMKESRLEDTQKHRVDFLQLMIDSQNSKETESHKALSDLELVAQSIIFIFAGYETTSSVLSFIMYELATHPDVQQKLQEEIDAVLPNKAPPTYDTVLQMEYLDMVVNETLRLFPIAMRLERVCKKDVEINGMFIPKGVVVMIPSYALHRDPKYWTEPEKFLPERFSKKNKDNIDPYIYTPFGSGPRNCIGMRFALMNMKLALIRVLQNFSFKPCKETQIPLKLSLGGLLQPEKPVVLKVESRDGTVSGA
Large T antigen, sequence (P03070 whole entry): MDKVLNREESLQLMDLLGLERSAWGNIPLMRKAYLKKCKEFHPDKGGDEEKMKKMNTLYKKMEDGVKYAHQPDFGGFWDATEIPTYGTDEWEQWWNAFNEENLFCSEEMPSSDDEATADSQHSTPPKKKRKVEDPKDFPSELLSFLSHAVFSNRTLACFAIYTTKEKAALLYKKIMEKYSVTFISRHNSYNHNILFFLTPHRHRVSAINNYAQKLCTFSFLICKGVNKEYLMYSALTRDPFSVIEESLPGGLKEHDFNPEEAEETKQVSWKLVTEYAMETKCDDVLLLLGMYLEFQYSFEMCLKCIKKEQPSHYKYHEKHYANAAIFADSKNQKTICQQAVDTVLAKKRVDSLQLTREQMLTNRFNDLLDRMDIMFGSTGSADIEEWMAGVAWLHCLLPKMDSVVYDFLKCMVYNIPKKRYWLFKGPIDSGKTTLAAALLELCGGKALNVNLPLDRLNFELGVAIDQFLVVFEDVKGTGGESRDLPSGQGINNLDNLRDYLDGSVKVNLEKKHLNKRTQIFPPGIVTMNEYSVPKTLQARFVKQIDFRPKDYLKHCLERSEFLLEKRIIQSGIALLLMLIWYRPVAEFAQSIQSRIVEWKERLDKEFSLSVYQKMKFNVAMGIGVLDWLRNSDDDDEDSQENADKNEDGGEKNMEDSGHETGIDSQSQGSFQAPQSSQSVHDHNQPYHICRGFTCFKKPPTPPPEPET
Nonstructural protein 1, sequence (Q194T2 whole entry): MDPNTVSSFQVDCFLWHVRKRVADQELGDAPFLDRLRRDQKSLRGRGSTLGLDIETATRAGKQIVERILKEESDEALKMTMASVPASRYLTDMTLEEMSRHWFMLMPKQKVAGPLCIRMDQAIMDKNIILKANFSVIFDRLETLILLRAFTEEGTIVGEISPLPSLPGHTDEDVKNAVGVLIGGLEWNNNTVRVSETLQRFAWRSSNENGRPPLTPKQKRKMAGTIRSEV
Cytochrome P450 2C19, sequence (P33261 whole entry): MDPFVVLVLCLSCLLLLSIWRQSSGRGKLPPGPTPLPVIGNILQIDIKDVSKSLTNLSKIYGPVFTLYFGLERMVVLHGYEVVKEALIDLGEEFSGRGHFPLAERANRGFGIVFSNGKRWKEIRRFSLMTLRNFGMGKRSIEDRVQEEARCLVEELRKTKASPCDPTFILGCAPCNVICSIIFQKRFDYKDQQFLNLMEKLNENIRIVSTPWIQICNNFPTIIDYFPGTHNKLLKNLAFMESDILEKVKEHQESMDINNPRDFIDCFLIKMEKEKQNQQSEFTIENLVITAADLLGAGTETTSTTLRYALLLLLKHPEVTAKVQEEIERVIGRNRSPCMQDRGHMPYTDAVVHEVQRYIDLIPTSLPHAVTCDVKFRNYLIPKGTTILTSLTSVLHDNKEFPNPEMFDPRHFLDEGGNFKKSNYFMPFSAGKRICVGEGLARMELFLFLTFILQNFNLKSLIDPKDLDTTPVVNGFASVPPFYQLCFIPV
Cytochrome P450 2C9, sequence (P11712 whole entry): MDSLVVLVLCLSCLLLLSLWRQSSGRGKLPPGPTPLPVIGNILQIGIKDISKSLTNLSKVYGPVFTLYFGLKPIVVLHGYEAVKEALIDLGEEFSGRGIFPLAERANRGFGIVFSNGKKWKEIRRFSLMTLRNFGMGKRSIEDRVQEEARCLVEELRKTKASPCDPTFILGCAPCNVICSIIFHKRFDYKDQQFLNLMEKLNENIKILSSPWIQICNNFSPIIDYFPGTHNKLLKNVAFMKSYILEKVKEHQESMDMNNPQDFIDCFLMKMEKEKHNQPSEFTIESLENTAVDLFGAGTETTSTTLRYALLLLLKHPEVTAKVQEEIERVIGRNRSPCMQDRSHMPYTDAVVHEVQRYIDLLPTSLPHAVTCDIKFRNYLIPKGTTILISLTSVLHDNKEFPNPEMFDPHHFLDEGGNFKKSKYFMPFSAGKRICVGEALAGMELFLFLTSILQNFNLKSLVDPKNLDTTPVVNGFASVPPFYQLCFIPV

As to `COc1ccc2c3c(n(C)c2c1)[C@H](CO)N(C(=O)Nc1ccccc1F)CC31CN(C)C1`, the AC50 in [1] was 18.5 µM (active); in assay [2], 6.4 µM (active). For the molecule `COc1ccccc1NC(=O)Cn1nnc(C(=O)NCc2cccs2)c1N`, in [3], the IC50 is > 80 µM (inactive). Further, the EC50 is 1.18 µM (active) in assay [4], 1.41 µM (active) with BJ [5], 19.3 µM (active) in the assay on BJ [6] and 1.96 µM (active) with BJ [7]. On to `C=CCSSSCC=C` [ALLITRIDIN], for which the AC50 at Cytochrome P450 3A4 is 39.8 µM (inconclusive). For the molecule `CCCCCCC(Cl)(Cn1ccnc1)c1ccccc1` (stereo not drawn), the AC50 in assay [8] was 8.5 µM (active). For the molecule `Cc1cc(Cl)ccc1OCCCC(=O)N1CCN(C(=O)c2ccco2)CC1`, in [9], the IC50 was 2 µM (active). Consider `O=C(C[n+]1ccccc1)NN=Cc1cc(Br)cc(Br)c1O`, for which, on Nonstructural protein 1, the IC50 was 3.68 µM (active). Take `Oc1ccc(/C=N/N2CCN(c3ccccn3)CC2)cc1`: the concentration for half-maximal inhibition (IC50) on Large T antigen was 42.5 µM (active). On the same count and under the same terms, next, `Cc1nnc(NN/C=C2\C(=O)N(c3cccc(C(F)(F)F)c3)C(=O)c3ccccc32)nc1O`: 15.2 µM (active). In the case of `NC(=O)c1snnc1-c1ccccc1`, the EC50 in assay [10] and in assay [11] was > 300 µM (not active) in each case.

For the molecule `CC(C)c1ccc(/C=C(\NC(=O)c2ccccc2)C(=O)NCCCn2ccnc2)cc1`, the IC50 in assay [9] is 15.8 µM (active).

Consider `O=C(OCC(=O)C12CC3CC(CC(C3)C1)C2)c1ccc(O)cc1`, for which the AC50 in assay [8] was 1.04 µM (active). `O=C(COC(=O)CCc1c[nH]c(=O)[nH]1)Nc1ccccc1Cl`: the EC50 was > 300 µM (not active) in assay [10] and 53.5 µM (active) in assay [11]. For `CCCc1ccc(OCc2ccc(C(=O)NCc3cccnc3)o2)c(OC)c1`, the IC50 in assay [9] was 5.01 µM (active).

For `O=C(c1ccc(C[S+]([O-])c2ccccc2Cl)o1)N1CCN(c2ccccn2)CC1` (stereo not drawn), in [3], the IC50 is > 80 µM (inactive). For the molecule `Nc1cccc(N)c1`, the AC50 at Cytochrome P450 3A4 is 31.6 µM (inconclusive). On the same count and under the same terms, the figure for `CC(C)c1c(O)ccc2c1CCC1[C@@](C)(CO)CCC[C@@]21C` (stereo partly drawn) is 39.8 µM (inconclusive). The same measure, in the same setting: next, `C=CCOC(=O)C(C(C)=O)C(NC(=O)OC)c1ccc2ccccc2c1` (stereo not drawn): 1 µM (inconclusive).

In the case of `CN(C)C(=O)c1ccc(-c2ccc3c(c2)[C@@H]2[C@@H](CCN2C(=O)C2CCCC2)[C@H](CO)N3C)cc1`, the AC50 in assay [1] was > 39 µM (inactive); in [2], 6.47 µM (active).

For `COc1ccc(Nc2ccc([N+](=O)[O-])c3nonc23)c(OC)c1`, the IC50 at Nonstructural protein 1 was > 100 µM (active). Turning to `C[C@@H]1CN([C@@H](C)CO)C(=O)c2cc(NS(=O)(=O)c3ccc(F)cc3)ccc2O[C@H]1CN(C)Cc1ccc(-c2ccccc2)cc1`, the AC50 in [12] was 20.9 µM (active); in assay [13], 45.7 µM (active). As for `CCCC(=O)N1CCCC(c2cc(C(=O)Nc3ccccc3)no2)C1` (stereo not drawn), the AC50 in assay [12] was 2.37 µM (active); in assay [13] it was 1.89 µM (active).

Take `Cn1c(N)c(C(=O)COC(=O)c2ccnc3ccccc23)c(=O)n(C)c1=O`: the AC50 on Cytochrome P450 3A4 is 15.8 µM (inconclusive). On to `CC(C)CC#Cc1ccc2c(c1)O[C@@H](CN(C)Cc1cccc(F)c1)[C@H](C)CN([C@H](C)CO)S2(=O)=O`, for which the results for the AC50 in [1] and in assay [2] were 17.1 µM (active) and 4.19 µM (active), respectively.

For `O=C(Nc1nc(-c2ccccc2)cs1)c1ccc(N2CCOCC2)c([N+](=O)[O-])c1`, the AC50 in assay [14] was 1.59 µM (active); in assay [15], 3.52 µM (active); in assay [16], 3.75 µM (active). Further, the IC50 in [3] was 10.2 µM (active). In addition, the EC50 in assay [17] was > 60 µM (inconclusive); in [18], 0.895 µM (active).

For `CCC(=S)/C=C1\Sc2ccc3ccccc3c2N1CCCS(=O)(=O)O`, the EC50 in assay [10] and in [11] was > 300 µM (not active) each time. For the same molecule, the AC50 on Cytochrome P450 2C9 is 20 µM (inconclusive); on Cytochrome P450 2C19, 28.2 µM (inconclusive). With `Cc1nn(-c2ccccc2)c(N2CCCC2)c1/C=N/NC(=O)c1cc(-c2cccnc2)nc2ccccc12`, the EC50 in assay [10] was > 300 µM (not active); in [17], 32.8 µM (active); in assay [11] it was > 300 µM (not active); in [18], 0.306 µM (active).

In the case of `Oc1c(Cl)cc(Cl)cc1/C=N/c1ccc(Br)cc1`, in assay [9], the IC50 is 13.2 µM (active). For the molecule `CC(C)NC[C@@H]1[C@@H](c2ccc(C3=CCCCC3)cc2)[C@@H](CO)N1C(=O)CC1CC1`, the AC50 in assay [1] is 36 µM (active); in assay [2] it was 6.18 µM (active). Regarding `COc1ccc(/C=C2/C(=O)OCc3cc(OC)c(OC)cc32)cc1`, the IC50 in assay [3] was 78.5 µM (inactive). In the case of `C[C@@H]1CN([C@H](C)CO)C(=O)Cc2cc(NC(=O)Nc3ccc(C(F)(F)F)cc3)ccc2O[C@@H]1CN(C)Cc1ccccc1`, in [19], the AC50 was 1.94 µM (active).

With `Cc1ccc(NC(=O)CNC(=O)c2cccc(Cl)c2)nc1`, the IC50 in assay [9] was 13.1 µM (active). On to `Cc1ccc(S(=O)(=O)Nc2ccc3c(c2)CC(=O)N([C@H](C)CO)C[C@@H](C)[C@H](CN(C)Cc2ccc(Cl)c(Cl)c2)O3)cc1`, for which the AC50 in assay [19] is 2.04 µM (active). The same measure, in the same setting: the figure for `C[C@@H]1CN([C@@H](C)CO)C(=O)c2cccc(NC(=O)C3CCCCC3)c2O[C@H]1CN(C)Cc1ccc(Oc2ccccc2)cc1` is 1.71 µM (active). For the molecule `CCS(=O)(=O)N1[C@H](CO)[C@H](c2ccc(C#CCC3CCCC3)cc2)[C@@H]1C#N`, the half-maximal activity concentration (AC50) was 62.4 µM (active) in assay [1] and 5.64 µM (active) in assay [2].
